Laboratory results from ChEMBL document CHEMBL1201862, “PubChem BioAssay data set” (2004).
Active and inactive are the calls of the source.

Legend:
[1] = biological target: Luciferin 4-monooxygenase (Photinus pyralis, UniProt P08659); assay: inhibition of purified Photinus pyralis luciferase – biochemical, luminescence, dose response (AID 1891)
[2] = Luminescence Cell-Based Dose Confirmation HTS to Identify Inhibitors of Platelet Dense Granule Release. [Related pubchem assays: 1663 (Primary HTS), 1678 (Summary of Project)]; type: functional
[3] = biological target: T1, Cytochrome P450 1A2 (Homo sapiens, UniProt P05177);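 note: PubChem cytochrome P450 panel assay, CYP1A2 panel member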
T1 sequence (P05177 whole entry): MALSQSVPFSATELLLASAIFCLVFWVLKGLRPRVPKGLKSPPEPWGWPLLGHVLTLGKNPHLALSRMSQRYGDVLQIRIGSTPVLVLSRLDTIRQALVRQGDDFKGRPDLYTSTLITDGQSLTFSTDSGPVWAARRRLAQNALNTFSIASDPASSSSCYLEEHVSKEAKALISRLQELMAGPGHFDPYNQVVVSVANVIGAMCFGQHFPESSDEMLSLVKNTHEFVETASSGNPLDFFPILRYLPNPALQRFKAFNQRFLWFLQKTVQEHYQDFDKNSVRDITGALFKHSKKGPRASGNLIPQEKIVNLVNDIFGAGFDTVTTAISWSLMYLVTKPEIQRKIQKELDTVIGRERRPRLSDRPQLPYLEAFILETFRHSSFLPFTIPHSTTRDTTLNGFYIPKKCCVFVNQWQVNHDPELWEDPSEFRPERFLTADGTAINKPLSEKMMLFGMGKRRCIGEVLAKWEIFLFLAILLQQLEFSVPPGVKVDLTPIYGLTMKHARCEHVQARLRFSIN

[4] = biological target: Cytochrome P450 3A4 (Homo sapiens, UniProt P08684);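 note: CYP3A4 tested as one member of a cytochrome P450 panel screen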
[5] = biological target: Cytochrome P450 2C9 (Homo sapiens, UniProt P11712)
[6] = system: Streptococcus sp. 'group A'; assay: Streptococcus pyogenes SK(-)GAS viability under kanamycin – luminescence, BacTiterGlo, confirmation, counter-screen for streptokinase expression inhibitor project, dose response (AID 1900); type: functional, organism-based; conditions: Streptococcus sp. 'group A'
[7] = cells; type: functional, cell-based
[8] = biological target: T2, Streptokinase A (Streptococcus pyogenes serotype M1, UniProt P10520); assay: viability-normalized secreted streptokinase activity reduction – plasminogen activation absorbance, OD405, dose response (AID 1914); type: functional, Streptococcus pyogenes M1 GAS;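 note: secreted streptokinase activity via plasminogen activation per viability signal from cell pellet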
T2 sequence (P10520 whole entry): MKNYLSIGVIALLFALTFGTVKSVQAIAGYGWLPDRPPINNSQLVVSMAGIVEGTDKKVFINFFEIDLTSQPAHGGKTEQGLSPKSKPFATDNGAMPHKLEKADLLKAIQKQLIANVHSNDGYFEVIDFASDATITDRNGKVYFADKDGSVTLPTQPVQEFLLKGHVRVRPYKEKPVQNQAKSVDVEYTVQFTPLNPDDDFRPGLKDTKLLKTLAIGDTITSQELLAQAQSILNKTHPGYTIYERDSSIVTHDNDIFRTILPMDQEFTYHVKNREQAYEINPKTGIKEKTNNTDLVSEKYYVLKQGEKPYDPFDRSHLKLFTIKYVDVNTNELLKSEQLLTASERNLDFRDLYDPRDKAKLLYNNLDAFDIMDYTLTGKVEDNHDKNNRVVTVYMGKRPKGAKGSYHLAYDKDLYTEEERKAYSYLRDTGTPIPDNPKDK

[9] = cells; type: functional, cell-based; remark: listed apart in the source
[10] = system: Streptococcus; assay: GAS UMAA2166 growth inhibition – luminescence, BacTiterGlo, counter-screen for streptokinase expression inhibitor project, dose response (AID 1915); type: functional, organism-based; conditions: Streptococcus;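 note: potency for reduction of bacterial viability or growth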
[11] = biological target: T3, Rac GTPase-activating protein 1 (Homo sapiens, UniProt Q9H0H5); assay: blockers of MgcRacGAP-driven Rac1 GTP hydrolysis – biochemical, ADP Hunter fluorescence, primary and confirmatory, confirmation (AID 624330); type: functional
T3 sequence (Q9H0H5 whole entry): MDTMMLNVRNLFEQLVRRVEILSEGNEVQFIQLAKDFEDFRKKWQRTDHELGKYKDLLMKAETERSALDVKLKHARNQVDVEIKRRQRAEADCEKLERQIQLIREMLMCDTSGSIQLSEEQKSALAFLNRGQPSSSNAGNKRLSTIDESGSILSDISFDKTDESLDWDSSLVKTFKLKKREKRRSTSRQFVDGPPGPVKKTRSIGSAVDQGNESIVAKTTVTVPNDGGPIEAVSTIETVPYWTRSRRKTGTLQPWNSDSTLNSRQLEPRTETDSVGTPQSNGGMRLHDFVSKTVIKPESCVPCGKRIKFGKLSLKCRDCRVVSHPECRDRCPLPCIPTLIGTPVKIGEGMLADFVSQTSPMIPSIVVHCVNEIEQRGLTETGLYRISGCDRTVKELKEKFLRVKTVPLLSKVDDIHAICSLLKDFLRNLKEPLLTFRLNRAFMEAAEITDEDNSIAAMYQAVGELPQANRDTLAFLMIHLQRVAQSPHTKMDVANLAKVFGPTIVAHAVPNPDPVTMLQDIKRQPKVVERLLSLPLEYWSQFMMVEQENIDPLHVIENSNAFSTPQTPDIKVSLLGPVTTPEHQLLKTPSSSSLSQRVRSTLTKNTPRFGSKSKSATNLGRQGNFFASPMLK

[12] = biological target: T4, Corticotropin-releasing factor receptor 2/Corticotropin-releasing factor-binding protein (Homo sapiens, UniProt P24387+Q13324); assay: activators of CRF receptor 2 with binding protein – uHTS hits, confirmation (AID 602473); type: functional; conditions: read-out: EC50_Mean
T4 sequence (Q13324 whole entry): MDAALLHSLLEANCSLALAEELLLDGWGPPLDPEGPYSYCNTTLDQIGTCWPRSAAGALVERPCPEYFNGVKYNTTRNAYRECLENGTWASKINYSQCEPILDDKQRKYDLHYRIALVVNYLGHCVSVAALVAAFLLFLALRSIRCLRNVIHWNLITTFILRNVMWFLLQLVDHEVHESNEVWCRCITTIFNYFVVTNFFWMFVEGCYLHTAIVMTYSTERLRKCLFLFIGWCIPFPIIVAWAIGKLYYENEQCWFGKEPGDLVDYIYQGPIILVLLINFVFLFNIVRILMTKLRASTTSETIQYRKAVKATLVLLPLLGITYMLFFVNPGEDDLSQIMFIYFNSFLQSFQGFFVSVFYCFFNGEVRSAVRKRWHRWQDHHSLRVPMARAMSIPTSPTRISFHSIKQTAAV
T4 sequence (P24387 whole entry): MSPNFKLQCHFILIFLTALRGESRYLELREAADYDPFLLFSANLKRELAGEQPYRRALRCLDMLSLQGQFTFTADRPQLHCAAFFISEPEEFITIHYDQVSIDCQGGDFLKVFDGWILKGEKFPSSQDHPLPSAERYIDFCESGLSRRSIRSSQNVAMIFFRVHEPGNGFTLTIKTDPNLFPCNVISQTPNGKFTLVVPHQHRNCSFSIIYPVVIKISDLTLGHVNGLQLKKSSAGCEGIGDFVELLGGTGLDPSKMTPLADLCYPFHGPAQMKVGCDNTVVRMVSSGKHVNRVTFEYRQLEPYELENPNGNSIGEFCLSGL

[13] = Luminescence Cell-Based Dose Confirmation HTS to Identify Activators of 5'UTR Stem-Loop Driven Alpha-Synuclein mRNA Translation in H4 Neuroglioblastoma Cells. [Related pubchem assays: 1829 (Project Summary), 1814 (Primary HTS)]; type: functional
[14] = Luminescence Cell-Based Dose Response HTS to Identify Activators of Luciferase Translation or Activity in H4 […] Cells. [Related pubchem assays: 1829 (Project Summary), 1814 (Primary HTS)]; type: functional
[15] = system: H4; assay: Luminescence Cell-Based Dose Response HTS to Identify Activators of 5'UTR Stem-Loop Driven Prion Protein mRNA Translation in H4 Neuroglioblastoma Cells. [Related pubchem assays: 1829 (Project Summary), 1814 (Primary HTS)]; type: functional; conditions: Homo sapiens
[16] = biological target: Cytochrome P450 2D6 (Homo sapiens, UniProt P10635);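 note: CYP2D6 member of a cytochrome P450 panel assay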
[17] = biological target: Cytochrome P450 2C19 (Homo sapiens, UniProt P33261); assay: Cytochrome panel assay with activity outcomes. Panel member name: p450-cyp2c19 Compounds with AC50 equal or less than 10 uM are considered active; type: functional; conditions: read-out: AC50
Sequence of Cytochrome P450 2C19 (P33261 whole entry): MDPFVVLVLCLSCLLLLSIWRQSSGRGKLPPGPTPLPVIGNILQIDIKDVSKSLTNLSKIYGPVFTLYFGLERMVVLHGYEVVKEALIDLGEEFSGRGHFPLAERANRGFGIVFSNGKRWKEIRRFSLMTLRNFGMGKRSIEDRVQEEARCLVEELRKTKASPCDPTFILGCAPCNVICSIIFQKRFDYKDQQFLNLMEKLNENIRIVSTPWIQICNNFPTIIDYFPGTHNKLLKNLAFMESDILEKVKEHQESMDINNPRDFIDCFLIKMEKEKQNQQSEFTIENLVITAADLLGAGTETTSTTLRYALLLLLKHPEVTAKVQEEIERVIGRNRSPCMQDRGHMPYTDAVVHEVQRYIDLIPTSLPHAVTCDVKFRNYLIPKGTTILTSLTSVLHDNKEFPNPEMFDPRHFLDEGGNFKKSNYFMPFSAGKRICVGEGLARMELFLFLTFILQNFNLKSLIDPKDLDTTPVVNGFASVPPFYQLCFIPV

Sequence of Cytochrome P450 3A4 (P08684 whole entry): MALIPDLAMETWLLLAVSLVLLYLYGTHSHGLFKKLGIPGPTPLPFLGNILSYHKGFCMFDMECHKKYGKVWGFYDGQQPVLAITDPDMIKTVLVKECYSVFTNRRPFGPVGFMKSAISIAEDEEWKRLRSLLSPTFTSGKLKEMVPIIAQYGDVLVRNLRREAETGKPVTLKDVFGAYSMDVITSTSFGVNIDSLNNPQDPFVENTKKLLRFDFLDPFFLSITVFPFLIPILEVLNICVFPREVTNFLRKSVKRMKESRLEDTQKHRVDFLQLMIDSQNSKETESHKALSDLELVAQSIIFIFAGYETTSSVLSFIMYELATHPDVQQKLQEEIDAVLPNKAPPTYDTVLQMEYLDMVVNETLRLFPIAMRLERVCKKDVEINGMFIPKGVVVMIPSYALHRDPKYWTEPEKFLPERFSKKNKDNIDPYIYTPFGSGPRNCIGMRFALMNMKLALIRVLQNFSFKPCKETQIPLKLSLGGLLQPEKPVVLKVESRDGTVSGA
Sequence of Cytochrome P450 2C9 (P11712 whole entry): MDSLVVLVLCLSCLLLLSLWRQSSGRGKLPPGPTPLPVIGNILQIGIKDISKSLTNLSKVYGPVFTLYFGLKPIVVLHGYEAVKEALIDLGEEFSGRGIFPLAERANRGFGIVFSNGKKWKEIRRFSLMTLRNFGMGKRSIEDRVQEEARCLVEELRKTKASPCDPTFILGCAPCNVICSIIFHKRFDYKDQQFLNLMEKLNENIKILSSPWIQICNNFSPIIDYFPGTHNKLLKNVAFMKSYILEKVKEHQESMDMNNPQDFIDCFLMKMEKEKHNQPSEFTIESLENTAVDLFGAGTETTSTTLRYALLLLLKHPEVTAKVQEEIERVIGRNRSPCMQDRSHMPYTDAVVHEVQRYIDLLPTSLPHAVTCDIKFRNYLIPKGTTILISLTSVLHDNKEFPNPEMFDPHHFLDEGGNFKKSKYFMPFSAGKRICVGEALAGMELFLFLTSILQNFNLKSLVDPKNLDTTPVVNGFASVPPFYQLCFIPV
Sequence of Luciferin 4-monooxygenase (P08659 whole entry): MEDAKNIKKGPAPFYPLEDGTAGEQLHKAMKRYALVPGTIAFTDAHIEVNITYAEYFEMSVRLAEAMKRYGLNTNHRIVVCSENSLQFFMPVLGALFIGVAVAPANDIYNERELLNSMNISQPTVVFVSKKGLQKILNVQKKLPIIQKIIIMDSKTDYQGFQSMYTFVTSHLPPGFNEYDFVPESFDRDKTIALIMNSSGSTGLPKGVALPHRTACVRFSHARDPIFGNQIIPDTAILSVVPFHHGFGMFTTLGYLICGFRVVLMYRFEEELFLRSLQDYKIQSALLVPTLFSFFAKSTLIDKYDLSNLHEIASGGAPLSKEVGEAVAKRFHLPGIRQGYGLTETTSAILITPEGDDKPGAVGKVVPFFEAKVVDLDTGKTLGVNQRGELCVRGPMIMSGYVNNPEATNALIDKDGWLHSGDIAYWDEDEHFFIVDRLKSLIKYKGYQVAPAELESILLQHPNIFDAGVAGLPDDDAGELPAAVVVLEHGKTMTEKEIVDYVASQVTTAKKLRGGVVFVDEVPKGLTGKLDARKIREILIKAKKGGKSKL
Sequence of Cytochrome P450 2D6 (P10635 whole entry): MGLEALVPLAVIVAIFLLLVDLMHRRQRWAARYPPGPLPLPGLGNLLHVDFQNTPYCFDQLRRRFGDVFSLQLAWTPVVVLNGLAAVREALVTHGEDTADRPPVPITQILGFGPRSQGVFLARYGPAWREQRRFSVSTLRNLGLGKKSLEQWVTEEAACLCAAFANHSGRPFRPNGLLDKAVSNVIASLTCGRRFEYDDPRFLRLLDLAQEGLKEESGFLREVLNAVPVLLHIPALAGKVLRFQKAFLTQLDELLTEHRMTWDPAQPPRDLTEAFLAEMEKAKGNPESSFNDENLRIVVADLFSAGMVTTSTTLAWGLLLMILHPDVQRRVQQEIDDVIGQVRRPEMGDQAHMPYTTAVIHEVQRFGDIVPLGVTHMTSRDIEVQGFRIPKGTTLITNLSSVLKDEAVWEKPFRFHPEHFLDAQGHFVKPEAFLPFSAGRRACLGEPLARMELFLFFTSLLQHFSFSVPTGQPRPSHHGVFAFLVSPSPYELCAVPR

For COc1ccc(S(=O)(=O)N(Cc2cccnc2)Cc2cc3ccccc3nc2O)cc1, the EC50 [1] was > 112 µM (not active) and the EC50 [2] was > 112 µM (not active).
In the case of Cc1ccc2c(c1)NCC(C(=O)NC1CCCCC1)O2 (stereo not given), the AC50 [3] is reported as 11.2 µM (inconclusive), the AC50 [4] is reported as 31.6 µM (inconclusive) and the AC50 [5] is reported as 39.8 µM (inconclusive).
With O=C(/C=C/c1cn(-c2ccccc2)nc1-c1ccccc1)Nc1ccc(C(=O)O)cc1 the EC50 [6] was 6.15 µM (active), the EC50 [7] was > 350 µM (not active) and the EC50 [8] was > 150 µM (not active). The EC50 [9] was 24.8 µM (active) and the EC50 [10] was 15.5 µM (active).
In the case of Cc1ccc2nc3c(O)n(CC(=O)NCCCN(C)Cc4ccccc4)ncc-3c2c1, the EC50 [7] is reported as > 350 µM (not active) and the EC50 [9] is reported as > 350 µM (not active).
With Cc1c(NC(=O)CN2CC(C)OC(C)C2)c(=O)n(-c2ccccc2)n1C (stereo not given) the IC50 [11] was 83.1 µM (active).
For O=C(NC(=S)Nc1cccc2c(O)cccc12)c1ccco1, the IC50 [11] was 32.3 µM (active).
With CC(=O)Nc1ccc(CN2CCCC(CO)(Cc3cccc(Cl)c3)C2)cc1 (stereo not given) the EC50 [12] was > 53 µM (inactive).
For O=C(C1CCCN(Cc2cccnc2)C1)N1CCCCC1 (stereo not given), the IC50 [11] was 74 µM (active).
For CCOC(=O)C1CCCN(C(=O)c2ccc3oc(Cc4ccccc4)nc3c2)C1 (stereo not given), the EC50 [13] was 13.9 µM (active), the EC50 [14] was 16.2 µM (active) and the EC50 [15] was 36.4 µM (active). For the same molecule, the EC50 [1] was > 112 µM (not active) and the EC50 [2] was > 112 µM (not active).
With CN(C)S(=O)(=O)c1ccc(Cl)c(NC(=O)COc2ccccc2[N+](=O)[O-])c1 the EC50 [1] was > 112 µM (not active) and the EC50 [2] was > 112 µM (not active).
For NC(CCCCc1ccccc1)c1cccc2ccccc12 (stereo not given), the EC50 [1] was > 112 µM (not active) and the EC50 [2] was 24.6 µM (active).
In the case of Cc1ccc(OCCCN2CCCC2)c(C)c1, the IC50 [11] is reported as 105 µM (active).
For C=CCOc1ccc(/C=C2\SC(N)=NC2=O)cc1OC, the EC50 [7] was > 350 µM (not active) and the EC50 [9] was > 350 µM (not active).
For CCCC(=O)C1=C(N2CCCCC2)CC(C)(C)C(C(=O)OC)C1=O (stereo not given), the EC50 [1] was > 112 µM (not active) and the EC50 [2] was > 112 µM (not active).
With CC(=O)c1cc(NC(=O)c2ccc(C)cc2)c(=O)oc1/C=C/N(C)C the EC50 [12] was 6.73 µM (active).
For Cn1c(CCNC(=O)c2ccco2)nc2cc(NC(=O)C3CCCCC3)ccc21, the EC50 [7] was > 350 µM (not active) and the EC50 [9] was 97.8 µM (active).
In the case of COc1ccc(-c2noc(CCCC(=O)NCCc3ccccc3)n2)cc1OC, the AC50 [16] is reported as 22.4 µM (inconclusive), the AC50 [3] is reported as 15.8 µM (inconclusive) and the AC50 [5] is reported as 4.47 µM (inconclusive).
With Cc1ccc2cccc(S(=O)(=O)N3CCCc4ccccc43)c2n1 the EC50 [1] was 34 µM (active), the EC50 [2] was 15.8 µM (active) and the EC50 [12] was 11.9 µM (active).
In the case of Cc1nc2c(ccc3nc(NC(=O)c4ccc(S(=O)(=O)N(C)C)cc4)sc32)s1, the AC50 [17] is reported as 7.94 µM (inconclusive), the AC50 [3] is reported as 3.16 µM (inconclusive) and the AC50 [4] is reported as 3.55 µM (inconclusive). For the same molecule, the AC50 [5] was 0.794 µM (inconclusive).
With COc1ccccc1OCc1nnc(SCC(=O)NCc2ccco2)n1-c1ccccc1 the EC50 [7] was > 350 µM (not active) and the EC50 [9] was > 350 µM (not active).
In the case of CC(C)COc1ccc(N)cc1OCC(C)C, the IC50 [11] is reported as 55.3 µM (active).
For O=C(c1cc(C2CC2)nn1-c1ccccc1)N1CCN(c2ccc(O)cc2)CC1, the IC50 [11] was 37.9 µM (active).
For COc1ncnc2sc(-c3ccccc3)cc12, the EC50 [1] was 2.4 µM (active) and the EC50 [2] was 6.33 µM (active).
With c1cncc(-c2nnc3n2C2(CCCCC2)Cc2ccccc2-3)c1 the AC50 [17] was 44.7 µM (inconclusive), the AC50 [3] was 39.8 µM (inconclusive) and the AC50 [5] was 31.6 µM (inconclusive).
For CCC1(c2ccccc2)NC(=O)N(CC(=O)Nc2ccc(N3CCCC3)cc2C)C1=O (stereo not given), the IC50 [11] was 112 µM (active).
With CC1(C)C[C@H](O)[C@@]23C[C@@H](OC2=O)[C@]2(C)C(=CCC4[C@@]5(C)CC[C@H](O)C(C)(C)C5CC[C@]42C)[C@@H]3C1 (stereo not given in full) the EC50 [12] was 5.32 µM (active).
In the case of Cc1nc([N+](=O)[O-])c(N2CCN(C)CC2)n1Cc1ccccc1, the AC50 [16] is reported as 35.5 µM (inconclusive) and the AC50 [5] is reported as 39.8 µM (inconclusive).
With COC(=O)Cn1/c(=N/C(=O)CSC(C)=O)sc2ccccc21 the EC50 [1] was > 112 µM (not active) and the EC50 [2] was > 112 µM (not active).
In the case of O=[N+]([O-])c1ccc(/N=C/c2ccc(Br)c([N+](=O)[O-])c2)cc1, the EC50 [7] is reported as > 350 µM (not active) and the EC50 [9] is reported as > 350 µM (not active).
In the case of CCOC(=O)c1cc2c(=O)n3ccccc3nc2n(CCOC)/c1=N\C(=O)C(C)(C)C, the AC50 [17] is reported as 20 µM (inconclusive), the AC50 [4] is reported as 31.6 µM (inconclusive) and the AC50 [5] is reported as 17.8 µM (inconclusive).
For C=CCN1C(=O)/C(=C2/Sc3ccccc3N2C)S/C1=N\c1c(C)n[nH]c1C, the EC50 [1] was > 112 µM (not active) and the EC50 [2] was 17.5 µM (active).
